In general, Emax refers to the greatest response seen or fitted, relative to the assay's reference.

Assay [1] has as its target T1, Protein cereblon/CREB-binding protein (Homo sapiens) (UniProt Q92793+Q96SW2). Kind of assay: PROTAC activity at CRBN/HiBiT-tagged CBP in human HAP1 cells assessed as total cumulative degradation by measuring AUC at 0.01 nM measured over 24 hrs by luminescence based analysis. It is filed as cell-based.
Assay [2] addresses T1, Protein cereblon/CREB-binding protein (Homo sapiens). Kind of assay: PROTAC activity at CRBN/HiBiT-tagged CBP in human HAP1 cells assessed as total cumulative degradation by measuring AUC at 0.1 nM measured over 24 hrs by luminescence based analysis. The class given is cell-based. On the technique in general: The HiBiT peptide binds its large partner to form an active luciferase.

Assay [3] has the same target. The assay is described as follows: PROTAC activity at CRBN/HiBiT-tagged CBP in human HAP1 cells assessed as total cumulative degradation by measuring AUC at 1 nM measured over 24 hrs by luminescence based analysis. It is filed as cell-based.
Assay [4] has the same target. Kind of assay: PROTAC activity at CRBN/HiBiT-tagged CBP in human HAP1 cells assessed as total cumulative degradation by measuring AUC at 10 nM measured over 24 hrs by luminescence based analysis. It is filed as cell-based.
The target is the same in assay [5]. Kind of assay: PROTAC activity at CRBN/HiBiT-tagged CBP in human HAP1 cells assessed as total cumulative degradation by measuring AUC at 100 nM measured over 24 hrs by luminescence based analysis. It is filed as cell-based.
Assay [6] has the same target. The assay is described as follows: PROTAC activity at CRBN/HiBiT-tagged CBP in human HAP1 cells assessed as total cumulative degradation by measuring AUC at 1000 nM measured over 24 hrs by luminescence based analysis. It is filed as cell-based.
The target of assay [7] is T2, Protein cereblon/Histone acetyltransferase p300 (Homo sapiens) (UniProt Q09472+Q96SW2). Kind of assay: PROTAC activity at CRBN/HiBiT-tagged p300 in human HAP1 cells assessed as induction of p300 degradation by measuring degradation rate at 1000 nM measured over 24 hrs by luminescence based analysis. It is filed as cell-based.
T2 sequence (Q09472 2-2414 limits assumed): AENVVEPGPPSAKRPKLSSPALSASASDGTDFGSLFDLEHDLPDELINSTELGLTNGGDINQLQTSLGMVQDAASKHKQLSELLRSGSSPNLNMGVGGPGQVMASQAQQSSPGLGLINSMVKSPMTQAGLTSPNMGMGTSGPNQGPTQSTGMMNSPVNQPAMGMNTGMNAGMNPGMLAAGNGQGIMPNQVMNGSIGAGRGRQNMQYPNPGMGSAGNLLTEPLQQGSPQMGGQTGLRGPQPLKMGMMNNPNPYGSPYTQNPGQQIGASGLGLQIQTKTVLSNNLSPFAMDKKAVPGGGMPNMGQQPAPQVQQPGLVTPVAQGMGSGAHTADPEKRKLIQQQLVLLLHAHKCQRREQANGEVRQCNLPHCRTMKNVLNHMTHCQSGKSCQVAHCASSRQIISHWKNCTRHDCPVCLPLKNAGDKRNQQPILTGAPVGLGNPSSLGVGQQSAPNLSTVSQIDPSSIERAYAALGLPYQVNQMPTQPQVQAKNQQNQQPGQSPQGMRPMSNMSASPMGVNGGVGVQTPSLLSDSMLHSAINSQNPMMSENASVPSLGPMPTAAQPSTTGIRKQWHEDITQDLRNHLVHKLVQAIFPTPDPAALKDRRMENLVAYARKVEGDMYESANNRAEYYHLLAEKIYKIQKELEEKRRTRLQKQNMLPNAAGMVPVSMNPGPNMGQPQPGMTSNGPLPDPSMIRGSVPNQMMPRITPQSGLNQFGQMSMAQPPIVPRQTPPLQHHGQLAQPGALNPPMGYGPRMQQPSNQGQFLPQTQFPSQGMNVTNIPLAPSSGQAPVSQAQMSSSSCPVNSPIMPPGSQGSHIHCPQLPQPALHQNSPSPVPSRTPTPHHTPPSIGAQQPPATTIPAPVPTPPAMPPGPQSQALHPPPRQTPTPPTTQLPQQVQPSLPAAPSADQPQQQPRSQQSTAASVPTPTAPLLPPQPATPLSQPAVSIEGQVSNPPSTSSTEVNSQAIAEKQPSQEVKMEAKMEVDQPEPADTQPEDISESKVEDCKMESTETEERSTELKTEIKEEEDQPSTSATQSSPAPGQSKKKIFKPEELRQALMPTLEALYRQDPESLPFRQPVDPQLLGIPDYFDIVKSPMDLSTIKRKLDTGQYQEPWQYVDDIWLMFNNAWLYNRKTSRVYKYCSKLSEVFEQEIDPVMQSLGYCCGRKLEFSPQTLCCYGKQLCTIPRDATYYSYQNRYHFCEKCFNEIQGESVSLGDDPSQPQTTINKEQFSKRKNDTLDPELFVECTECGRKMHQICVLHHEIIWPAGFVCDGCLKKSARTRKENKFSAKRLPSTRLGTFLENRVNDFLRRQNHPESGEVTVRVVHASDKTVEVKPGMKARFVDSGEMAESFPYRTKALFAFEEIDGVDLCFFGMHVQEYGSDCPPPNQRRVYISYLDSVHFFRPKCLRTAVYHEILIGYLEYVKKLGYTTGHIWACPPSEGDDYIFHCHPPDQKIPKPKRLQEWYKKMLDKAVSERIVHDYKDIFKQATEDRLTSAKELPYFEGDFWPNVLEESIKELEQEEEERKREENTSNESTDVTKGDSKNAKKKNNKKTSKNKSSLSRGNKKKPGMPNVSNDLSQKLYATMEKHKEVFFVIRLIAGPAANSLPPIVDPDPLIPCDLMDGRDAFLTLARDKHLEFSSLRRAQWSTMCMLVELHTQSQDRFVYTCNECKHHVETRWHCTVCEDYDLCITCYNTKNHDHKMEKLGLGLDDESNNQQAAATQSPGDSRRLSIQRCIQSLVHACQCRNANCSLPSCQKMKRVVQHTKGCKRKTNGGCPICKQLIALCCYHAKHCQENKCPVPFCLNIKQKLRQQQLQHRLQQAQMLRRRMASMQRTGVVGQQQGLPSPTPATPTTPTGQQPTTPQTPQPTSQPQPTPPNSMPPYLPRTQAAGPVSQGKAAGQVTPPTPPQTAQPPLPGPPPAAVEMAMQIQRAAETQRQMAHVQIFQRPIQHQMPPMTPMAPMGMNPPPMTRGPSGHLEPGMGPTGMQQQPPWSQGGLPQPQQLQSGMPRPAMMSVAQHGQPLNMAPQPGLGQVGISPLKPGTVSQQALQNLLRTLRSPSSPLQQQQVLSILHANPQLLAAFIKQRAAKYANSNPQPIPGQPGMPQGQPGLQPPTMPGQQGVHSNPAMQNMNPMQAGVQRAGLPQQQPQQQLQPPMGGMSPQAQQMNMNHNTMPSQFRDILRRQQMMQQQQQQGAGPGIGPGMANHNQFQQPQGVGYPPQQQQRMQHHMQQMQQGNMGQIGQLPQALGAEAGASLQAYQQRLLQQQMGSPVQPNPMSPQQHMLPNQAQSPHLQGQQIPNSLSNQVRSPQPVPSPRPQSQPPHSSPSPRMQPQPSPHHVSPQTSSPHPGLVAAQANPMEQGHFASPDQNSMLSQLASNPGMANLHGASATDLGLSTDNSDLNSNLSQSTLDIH
T2 sequence (Q96SW2 whole entry partner): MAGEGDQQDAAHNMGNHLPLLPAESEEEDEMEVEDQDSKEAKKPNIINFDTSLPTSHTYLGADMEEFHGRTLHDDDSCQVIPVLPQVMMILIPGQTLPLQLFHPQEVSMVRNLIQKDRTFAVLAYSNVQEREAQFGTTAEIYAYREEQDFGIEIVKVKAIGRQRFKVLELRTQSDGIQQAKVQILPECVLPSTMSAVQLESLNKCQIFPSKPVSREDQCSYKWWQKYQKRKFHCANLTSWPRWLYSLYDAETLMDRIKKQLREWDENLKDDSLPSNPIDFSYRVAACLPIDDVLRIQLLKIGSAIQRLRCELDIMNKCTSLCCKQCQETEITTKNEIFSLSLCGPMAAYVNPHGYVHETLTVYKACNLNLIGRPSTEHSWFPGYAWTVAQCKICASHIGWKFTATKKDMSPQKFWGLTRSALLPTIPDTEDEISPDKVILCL
Assay [8] concerns the target T2, Protein cereblon/Histone acetyltransferase p300 (Homo sapiens). Kind of assay: PROTAC activity at CRBN/HiBiT-tagged p300 in human HAP1 cells assessed as induction of p300 degradation by measuring maximal efficacy at 1000 nM measured over 24 hrs by luminescence based analysis relative to control. The class given is cell-based.
Assay [9] has the same target. Kind of assay: PROTAC activity at CRBN/HiBiT-tagged p300 in human HAP1 cells assessed as total cumulative degradation by measuring AUC at 0.01 nM measured over 24 hrs by luminescence based analysis. It is filed as cell-based.
Assay [10] shares this target. The assay is described as follows: PROTAC activity at CRBN/HiBiT-tagged p300 in human HAP1 cells assessed as total cumulative degradation by measuring AUC at 0.1 nM measured over 24 hrs by luminescence based analysis. It is filed as cell-based.
For assay [11] the target is unchanged. The assay is described as follows: PROTAC activity at CRBN/HiBiT-tagged p300 in human HAP1 cells assessed as total cumulative degradation by measuring AUC at 1 nM measured over 24 hrs by luminescence based analysis. It is filed as cell-based.
The target is the same in assay [12]. The assay is described as follows: PROTAC activity at CRBN/HiBiT-tagged p300 in human HAP1 cells assessed as total cumulative degradation by measuring AUC at 10 nM measured over 24 hrs by luminescence based analysis. It is filed as cell-based.
The target is the same in assay [13]. Kind of assay: PROTAC activity at CRBN/HiBiT-tagged p300 in human HAP1 cells assessed as total cumulative degradation by measuring AUC at 100 nM measured over 24 hrs by luminescence based analysis. It is filed as cell-based.
For assay [14] the target is unchanged. Kind of assay: PROTAC activity at CRBN/HiBiT-tagged p300 in human HAP1 cells assessed as total cumulative degradation by measuring AUC at 1000 nM measured over 24 hrs by luminescence based analysis. The class given is cell-based.
The target in assay [15] is Protein cereblon/Bromodomain-containing protein 4 (Homo sapiens) (UniProt O60885+Q96SW2). Kind of assay: PROTAC activity at CRBN/HiBiT-tagged BRD4 in human HAP1 cells assessed as induction of BRD4 degradation measured over 24 hrs by luminescence based analysis. The class given is cell-based.
Protein cereblon/Bromodomain-containing protein 4 (Homo sapiens), sequence (Q96SW2 whole entry, looked up, other chains not shown): as the sequence (Q96SW2 whole entry partner) above
Assay [16] has as its target T2, Protein cereblon/Histone acetyltransferase p300 (Homo sapiens). The assay is described as follows: Binding affinity to recombinant CRBN/p300 bromodomain (unknown origin) assessed as ternary complex formation at 10 to 100 nM by Alphascreen-based proximity assay. To be noted: dose 10-100 nM. The class given is protein assay. (Alpha assays give light when donor and acceptor beads are brought close together.)

For assay [17], the target named is T1, Protein cereblon/CREB-binding protein (Homo sapiens). The assay is described as follows: Binding affinity to recombinant CRBN/CBP bromodomain (unknown origin) assessed as ternary complex formation at 10 to 100 nM by Alphascreen-based proximity assay. It is filed as protein assay. To be noted: dose 10-100 nM.
For assay [18] the target is unchanged. Kind of assay: PROTAC activity at CRBN/HiBiT-tagged CBP in human HAP1 cells assessed as induction of CBP degradation by measuring maximal efficacy at 10 nM measured over 24 hrs by luminescence based analysis relative to control. The class given is cell-based.
Assay [19] shares this target. Kind of assay: PROTAC activity at CRBN/HiBiT-tagged CBP in human HAP1 cells assessed as induction of CBP degradation by measuring maximal efficacy at 100 nM measured over 24 hrs by luminescence based analysis relative to control. It is filed as cell-based.
Assay [20] shares this target. Kind of assay: PROTAC activity at CRBN/HiBiT-tagged CBP in human HAP1 cells assessed as induction of CBP degradation by measuring maximal efficacy at 1000 nM measured over 24 hrs by luminescence based analysis relative to control. It is filed as cell-based.
The target is the same in assay [21]. The assay is described as follows: PROTAC activity at CRBN/HiBiT-tagged CBP in human HAP1 cells assessed as induction of CBP degradation by measuring degradation rate at 10 nM measured over 24 hrs by luminescence based analysis. The class given is cell-based.
Assay [22] shares this target. The assay is described as follows: PROTAC activity at CRBN/HiBiT-tagged CBP in human HAP1 cells assessed as induction of CBP degradation by measuring degradation rate at 100 nM measured over 24 hrs by luminescence based analysis. It is filed as cell-based.
The target is the same in assay [23]. The assay is described as follows: PROTAC activity at CRBN/HiBiT-tagged CBP in human HAP1 cells assessed as induction of CBP degradation by measuring degradation rate at 1000 nM measured over 24 hrs by luminescence based analysis. The class given is cell-based.
Assay [24] concerns the target T2, Protein cereblon/Histone acetyltransferase p300 (Homo sapiens). Kind of assay: PROTAC activity at CRBN/HiBiT-tagged p300 in human HAP1 cells assessed as induction of p300 degradation by measuring degradation rate at 10 nM measured over 24 hrs by luminescence based analysis. It is filed as cell-based.
For assay [25] the target is unchanged. The assay is described as follows: PROTAC activity at CRBN/HiBiT-tagged p300 in human HAP1 cells assessed as induction of p300 degradation by measuring degradation rate at 100 nM measured over 24 hrs by luminescence based analysis. The class given is cell-based.
Assay [26] has the same target. The assay is described as follows: PROTAC activity at CRBN/HiBiT-tagged p300 in human HAP1 cells assessed as induction of p300 degradation by measuring maximal efficacy at 10 nM measured over 24 hrs by luminescence based analysis relative to control. The class given is cell-based.
Assay [27] shares this target. Kind of assay: PROTAC activity at CRBN/HiBiT-tagged p300 in human HAP1 cells assessed as induction of p300 degradation by measuring maximal efficacy at 100 nM measured over 24 hrs by luminescence based analysis relative to control. The class given is cell-based.

SMILES strings stand for the structures. The source made the active and inactive calls. The rule behind the calls is not given here.

For `CNC(=O)N1CCc2c(c(N3CCN(C(=O)NCCOCCOCCOCCOCCNc4ccc5c(c4)C(=O)N(C4CCC(=O)NC4=O)C5=O)c4cc(-c5cnn(C)c5)c(C(F)(F)F)cc43)nn2C2CCOCC2)C1` (configuration not stated), the AUC came to 24.1 in assay [1]; 24.4 in [2]; 24.7 in [3]; 25.1 in [4]; 24.6 in assay [5]; 24.2 in assay [6]. Further, the AUC in assay [9] came to 27.2; in assay [10], 27.3; in [11], 27.7; in [12], 26.9; in assay [13] it was 25.5; in assay [14] it was 22.1. For the same compound, the Activity in assay [7] is 0.009 h⁻¹. For the same compound, the Emax in assay [8] was 26%. Moreover, the outcome in [15] was inactive. For the same compound, the outcome in assay [16] and in assay [17] was Active.

As to `CNC(=O)N1CCc2c(c(N3CCCc4cc(-c5cnn(CC(=O)NCCOCCOCCOCCOCCNc6ccc7c(c6)C(=O)N(C6CCC(=O)NC6=O)C7=O)c5)c(C(F)F)cc43)nn2C2CCOCC2)C1` (configuration not stated), the maximum response (Emax) in [18] came out at 22%; in assay [19] it was 42%; in [20], 42%; in assay [26], 61%; in assay [27], 51%; in assay [8], 55%. Also, the Activity in [21] is 9.7 10^-3/hr; in assay [22], 0.11 h⁻¹; in assay [23], 0.12 h⁻¹; in assay [24], 0.03 h⁻¹; in assay [25] it was 0.11 h⁻¹; in assay [7], 0.11 h⁻¹. Besides, the AUC was 22.4 in assay [1]; 23.4 in assay [2]; 23.3 in assay [3]; 22.2 in assay [4]; 18 in assay [5]; 17.8 in [6]. For the same compound, the AUC in [9] was 28; in assay [10], 26.8; in assay [11], 25.8; in assay [12] it was 21.3; in assay [13] it was 16.8; in [14], 15.8. Also, the result in assay [15] was inactive. For the same compound, the result in [16] and in assay [17] was Active.

Take `CNC(=O)N1CCc2c(c(N3CCCc4cc(-c5cnn(CC(=O)NCCOCCOCCOCCOCCOCCOCCNc6ccc7c(c6)C(=O)N(C6CCC(=O)NC6=O)C7=O)c5)c(C(F)F)cc43)nn2C2CCOCC2)C1` (configuration not stated): the AUC in [1] was 21.6; in assay [2] it was 22.8; in assay [3] it was 23.6; in assay [4], 23; in assay [5] it was 23.2; in [6], 25. Besides, the AUC in assay [9] came out at 27.6; in [10], 27; in [11], 26.1; in assay [12], 22.7; in assay [13], 22.4; in assay [14], 26.1. The Activity in [24] came to 0.006 h⁻¹; in [25], 0.02 h⁻¹. Moreover, the results for the Emax in assay [26] and in [27] were 19% and 21%, respectively. For the same compound, in [15], the result was inactive. In addition, the result in [16] and in [17] was Active.

Take `CNC(=O)N1CCc2c(c(N3CCN(C(=O)NCCOCCOCCOCCOCCOCCOCCNc4ccc5c(c4)C(=O)N(C4CCC(=O)NC4=O)C5=O)c4cc(-c5cnn(C)c5)c(C(F)(F)F)cc43)nn2C2CCOCC2)C1` (configuration not stated): the AUC in [1] came to 24.9; in [2], 24.4; in [3], 24.5; in assay [4], 24.2; in assay [5], 24.1; in assay [6], 23. In addition, the AUC in [9] is 27.7; in assay [10] it was 27.5; in assay [11], 27.4; in assay [12], 26.4; in assay [13], 24.2; in [14] it was 20.5. Moreover, the Activity in [7] was 0.05 h⁻¹. Moreover, in assay [8], the maximum response (Emax) was found to be 33%. Also, the outcome in [15] was inactive. For the same compound, the result in assay [16] and in assay [17] was Active.

For the compound `CNC(=O)N1CCc2c(c(N3CCN(C(=O)NCCOCCNc4ccc5c(c4)C(=O)N(C4CCC(=O)NC4=O)C5=O)c4cc(-c5cnn(C)c5)c(C(F)(F)F)cc43)nn2C2CCOCC2)C1` (configuration not stated), the Emax in assay [20] came to 26%; in [8] it was 20%. In addition, the Activity in assay [23] was found to be 0.036 h⁻¹; in [7], 0.02 h⁻¹. Also, the AUC worked out at 23.4 in assay [1]; 25 in assay [2]; 23.9 in [3]; 24.9 in [4]; 23.6 in assay [5]; 21.4 in assay [6]. Moreover, the AUC came to 27.5 in assay [9]; 27.5 in [10]; 26.9 in assay [11]; 27 in [12]; 26.2 in [13]; 22.3 in assay [14]. In addition, the outcome in assay [15] was inactive.

For the origin of these results see ChEMBL document CHEMBL5579809, “Exploration of bromodomain ligand-linker conjugation sites for efficient CBP/p300 heterobifunctional degrader activity” (Bioorg Med Chem Lett, 2024).
